Experimental data from patent US9932556B2, “Method for in vitro differentiation of blood circulating cells into neuronal-like cells and applications thereof” (Centre National de la Recherche Scientifique (CNRS), priority 2013, dated 2018).
Read-outs that look alike come from different tables or passages of the source.

Assays:
[1] = tested on: pluripotent macrophages; test: in vitro differentiation of monocytes-derived pluripotent macrophages into neuronal-like cells; settings: for effect on cells of increased concentration or number of doses: concentration increased above the recommended ones, or number of doses increased
Description: (§1) Isolated monocytes were centrifuged and resuspended in DMEM/10% FBS at a concentration of 550 cells/ml. M-CSF (Macrophage colony-stimulating factor) was added to resuspended cells at a concentration of 1:2000 with a stock solution at 0.1 mg/ml.
(§2) 1.2 million monocytes were plated per each 9.6 cm^2 well of a 6-well plate, 550,000 monocytes per each 3.1 cm^2 well of a 12-well plate, and 6 million monocytes per each 25 cm^2 flask. To ensure that monocytes became confluent and evenly distributed, and thus maintained a good differentiation rate, flasks and plates remained horizontal throughout the protocol, plating was done slowly by gently releasing monocytes from the pipette. Plated cells were left at room temperature for at least 15 min so that cells became fully attached to the surface of the plates or flasks, and subsequently incubated at 37° C. with 5% CO2 until day 4.
(§3) Once the tubes of steps e) and f) were at 37° C., the growth factor BHA (butylated hydroxyanizole) was added to the culture medium of monocytes at a final concentration of 50 nM, as follows: • g) adding 10 μl of 100 mM BHA (0.0089 grams of BHA+500 μL ethanol) to the 10 ml of DMEM/10% FBS of step e), thereby obtaining a 100 μM BHA/DMEM solution. Then diluting 10 μl of this 100 μM solution with a further 10 ml of DMEM/10% FBS heated at 37° C., thereby obtaining a 100 nM BHA/DMEM solution; • h) discarding the medium of the 6- and 12-well plates containing the monocytes isolated from the same subject as the PBMCs of step b); • i) adding the BHA/DMEM solution and the conditioned medium to each well of the plates in a 1:1 ratio, i.e.: • 1.5 ml of the 100 nM BHA/DMEM of step g) and 1.5 ml of the PBMCs conditioned medium of step f), for each well of a 6-well plate, and • 1 ml of the 100 nM BHA/DMEM of step g) and 1 ml of the PBMCs conditioned medium of step f), for each well of a 12-well plate; • j) incubating the plates at 37° C. with 5% CO2 until day 10. […]

[2] = tested on: pluripotent macrophages
Description: as §1, §2, §3

Compound | effect on cells of increased concentration or number of doses [1] | further results
COc1ccc(O)c(C(C)(C)C)c1 [BHA, Butylated hydroxyanisole] | damaged the cells | –
CC1=C(/C=C/C(C)=C/C=C/C(C)=C/C(=O)O)C(C)(C)CCC1 [RA, Retinoic Acid] | damaged the cells | –
IGF-1: Recombinant human Insulin Growth Factor-1 (Peprotech) | – | effect on cells of increased concentration or number of doses [2]: damaged the cells
IGF-2: Insulin growth factor-2, exogenous factor tested as replacement | – | cell viability ([1]; replacing IGF-1 by this factor): did not improve cell viability
